Measured values reported in patent US9573960B2, “Glioblastoma inhibiting compounds and their use” (Life & Brain GmbH, priority 2011, dated 2017).

Experiments:
[1] = system: four patient-specific primary GBM cultures; settings: 1 μM
Description: Before screening, cell number was titrated for each cell line separately to ensure that cell proliferation remained in a linear-exponential phase throughout the experiment. 24 hours after seeding 2−3×10^3 cells/well into laminin/poly-L-ornithine coated 96-well plates, primary cultures were treated with 2 nM, 1 μM or 10 μM of each compound (stock solution 10 mM in DMSO). As a reference we treated cells with 50 μM and 500 μM temozolomide (TMZ, SigmaAldrich, Taufkirchen, Germany; stock solution of 100 mM in DMSO). Control cells were treated with 0.5-0.01% DMSO. Six days after application, cell viability was determined using the AlamarBlue® assay according to the manufacturers recommendations (Invitrogen, Karlsruhe, Germany). Fluorescence was measured using an Infinite200 microplate reader (Tecan, Crailsheim, Germany) at Xex=540 nm and Xem=590 nm. Experiments were performed in triplicates for each sample.
To identify cytotoxic and cytostatic compounds, we conducted in vitro drug-screening assays in four different patient-specific primary GBM cultures (see Table 1 for basic characterization of research specimens).
The compound library was screened at three different concentrations (10 μM, 1 μM, 2 nM). The relative metabolic activity was determined after a 5-day incubation with compounds. […] For reference, we applied 50 μM (reported plasma peak concentration) and 500 μM of temozolomide (TMZ, as described in Beier et al., 2008), the current standard chemotherapeutic GBM drug to our cells. […] However, “hits” in the setting of a primary screening were defined as a reduction of the relative metabolic activity under the level of 50% of DMSO-treated control cells.

[2] = system: patient-specific primary human glioblastoma cells (pGBMs); experiment: Pharmacodynamic analysis of GAA and GA, AlamarBlue (IMC50); assay type: cell-based
Description: To validate the results obtained from primary screening, these compounds were purchased from independent suppliers (FIG. 13). Pharmacodynamic analysis was conducted by determining the concentrations that decreased the metabolic activity of pGBMs to 50% control levels (IMC50). […] For further analysis, pGBMs were collected at five days following single-dose in vitro application of the respective compound.
(§1) Considering the cellular and genetic diversity that characterizes GBM, we next investigated GAA's pharmacological effect in 17 pGBM samples derived from 11 patients (see Table 2 for list of samples and patient data). […] Next, pair-wise comparison of GAA-pharmacodynamics was performed in pGBMs to stratify results according to key clinical constellations (Bredel et al., 2011; Glas et al., 2010; Simpson et al., 2006; Weller et al., 2010). Glioblastoma samples derived from (i) the tumor center vs. periphery region of the same patient, (ii) primary vs. recurrent disease of the same patient, (iii) MGMT-promoter hypermethylated vs. unmethylated tissue, (iv) p53 wild type vs. p53 mutated samples, as well as from (v) NFKBIA wild type vs. NFKBIA deleted genotypes.
For pharmacodynamic analysis, 5×10^4 cells were plated in 12-well-plates at 24 hours before application of compound-series. […] Experiments were performed in triplicates. IMC50 was defined as the compound concentration that reduced the metabolic activity by 50% compared to control conditions and determined via data analysis in GraphPad Prism 4.0.

[3] = system: CD133+ vs. CD133− pGBM cells; experiment: CD133+ vs CD133- pGBM cells, metabolic activity and cell confluency; assay type: cell-based, human; settings: IMC50, 5 days after single exposure
Source text: FIG. 19: Preferred targeting of CD133^+ GBM cells by Gambogig acid amide. (A) FACS-based identification and sorting of CD133^+ subpopulations from pGBMs (#106, top; #058, bottom). Note the respective frequency of CD133^+ cells is indicated within the panel). (B) Relative metabolic activity and cell confluency of CD133-positive vs. CD133-negative pGBM cells determined at 5 days after single exposure of Gambogic acid (IMC50, top) and Gambogic acid amide (IMC50, bottom). Note the selective sensitivity of CD133^+ cells in response to application of Gambogic acid amide.
To further corroborate the cancer stem cell-specific inhibitory activity of GAA, we selected CD133-positive and -negative cell populations from pGBMs (FIG. 19). CD133^+ cells are known among glioblastoma samples to represent a minority of tumorigenic stem-like phenotypes (Singh et al., 2004). Comparative evaluation of the inhibitory effects induced by GAA and GA on CD133^+ vs. CD133^− pGBM cells confirmed our assumption.
For fluorescence-activated cell separation (FACS), cells were stained with CD133/2-PE or with CD133/2-APC (both 1:20; Miltenyi Biotech) and sorted on a BD FACS DiVa Cell Sorter (Becton Dickinson).

[4] = system: LN229, T98G, U87, U138, and U373 cells; experiment: Pharmacodynamic analysis in commercial glioma/GBM cell lines; assay type: cell-based; settings: compared with pGBM IMC50's
Description: as §1
For pharmacodynamic analysis, 5×10^4 cells were plated in 12-well-plates at 24 hours before application of compound-series. AlamarBlue®-based analysis was conducted at 5 days post treatment. Experiments were performed in triplicates. IMC50 was defined as the compound concentration that reduced the metabolic activity by 50% compared to control conditions and determined via data analysis in GraphPad Prism 4.0.

[5] = system: self-renewing, multipotent cells among pGBMs; experiment: Neurosphere assay after GA or GAA pre-treatment; assay type: cell-based, human; settings: single pre-treatment, vital cells collected at day 5
Source text: In a next series of experiments we aimed to determine the influence of the compounds on the activity of tumor-initiating cells (TICs). TICs embody a severe functional consequence of intra-tumor heterogeneity as, at least in human glioblastoma, it is anticipated that they are represented by a small subpopulation of stem-like, i.e. self-renewing and multipotent cells (e.g. Sties and Rowitch, 2008; Zhou et al., 2009). In previous work, we established their frequencies in the range from 0.25 to 1% among culture passage 5-10 pGBMs (see Glas et al., 2010). To estimate potential compound-induced alterations to the pool of self-renewing and multipotent cells in pGBMs, the neurosphere assay (NSA) was applied as recently described (Scheffler et al., 2005; Glas et al., 2010). Heterogeneous pGBM samples (#'s 046, 078, 106) were exposed to the compounds, vital cells were collected at day 5, and processed under non-adherent conditions in the NSA (neurosphere assay, see methods).
The neurosphere assay was performed to estimate the frequency of self-renewing clonogenic cells according to established protocols (Glas et al., 2010; Scheffler et al., 2005). Neurospheres were quantified at 21 days in culture, triturated to a single cell suspension, and re-plated for analysis of the secondary and tertiary neurospheres. […]

pGBMs (#046) = experiment: Orthotopic xenotransplantation of pre-treated pGBMs; assay type: in vivo, Rag2Il2rg−/− mice; settings: pGBMs pre-treated 5 days at IMC50, 10^6 cells into striatum, vs DMSO
Description: FIG. 18: Gambogig acid amide decreases the tumor-initiating potential of pGBMs. pGBMs (#046) were treated with IMC50 concentrations of the respective compounds for 5 days in vitro. […] surviving vital cells were subsequently collected and injected into the striatum of adult immunocompromised mice (n=5 for each experiment). (A) Kaplan-Meier curves show no significant survival advantage upon injection of pGBMs pre-treated with gambogic acid (dotted) vs. DMSO controls (solid).
Cells were harvested, counted and re-suspended in 0.1% DNase/PBS. Cellular viability was confirmed via trypan blue exclusion. 10^6 DMSO-control-, gambogic acid or gambogic acid amide-pretreated pGBMs were injected stereotactically into the striatum of 12 week old Rag2Il2rg^−/− mice (0.8 mm anterior, 2 mm lateral, 3 mm deep). Mice were monitored daily and euthanized upon presentation with signs of distress/neurological symptoms or significant weight loss. For subsequent histological analysis, brains were removed, cryoprotected, and serially cut on a cryostat (Leica) at 20 μm thickness. Every fifth section underwent routine H&E staining for histological analysis of tumor formation.

With `CC(C)=CCC[C@]1(C)C=Cc2c(O)c3c(c(CC=C(C)C)c2O1)O[C@]12C(=C[C@@H]4CC1C(C)(C)O[C@@]2(C/C=C(/C)C(N)=O)C4=O)C3=O` [GAA, Gambogic acid amide] the “cellular viability of pGBMs, control levels” value [1] was “below 50%”, the “inhibition of the metabolic activity of pGBMs” value ([2]; FIG. 14A) was “effectively and to a comparable degree” and the “time of induction of inhibitory activity” value ([2]; day 1, 2 or 5 following exposure, versus Gambogic acid) was “earlier time point”. The IC50 ([2]; pGBM #106, day 5) was 0.514 µM, the IC50 ([2]; pGBM #132, day 5) was 0.078 µM and the “inhibitory activity compared with GA (dose-response)” value ([2]; triplicate analysis for each sample) was “consistently at lower concentrations”. For the same molecule, the “selective reduction of cell growth and viability among CD133+ vs CD133− cells” value [3] was “significantly stronger reduction”, the “inhibitory activity in commercial glioma/GBM cell lines” value [4] was “Comparable results” and the “frequency of self-renewing, multipotent cells (primary, secondary, tertiary spheres)” value [5] was “considerably reduced frequency”. The “survival of animals that received pre-treated pGBMs” value (pGBMs (#046)) was “significantly increased survival”.
